Experimental data from patent publication US10106577B2, “Agonists of neurotrophin receptors and their use as medicaments” (BIONURE FARMA, S.L., priority 2010, dated 2018).

What was measured:
[1] = tested on: NGF-receptors (TrkA and p75) on PC12 cells; test: Cytometry binding assay, competition NGF/G79-FITC in PC12; conditions: G79-FITC 100 ng/ml; NGF 0-10-20-50-100 ng/ml
Experimental: In order to assess the binding of G79 to the TrkA (PC12 cells) and TrkB receptors (SH-SY5Y), we performed competitive binding assays by flow cytometry. In order to assess the binding competition between p75 and TrkA, PC12 cells expressing both TrkA and p75 receptors were cultivated in normal growth medium. After detaching cells by trypsin solution, 200,000 cells/well were added to tubes for the following incubations. One tube contains control untreated cells. In the other tubes, cells were pre-incubated for 45 minutes with different concentrations of NGF (0-10-20-50-100 ng/ml), that can directly bind both TrkA and p75 receptors, blocking the possible binding of G79 if it competes for the same receptors. Then, without washing the cells, G79 conjugated with FITC fluorescence (100 ng/ml) was added and so incubated the cells for 1 hour. Samples were read in a cytometer (FCAScan).
To detect the binding separately on both receptors, a prior incubation of cells (before NGF incubation) with blocking antibodies was made. The cells were preincubated for 1 hour with blocking antibody anti-p75 (1:100; Chemicon Int.), to detect the binding on TrkA, or blocking antibody anti-TrkA (1:200; AbCam) to detect the binding on p75. […] All the results are expressed as mean channel fluorescence (MCF), which is a measure of the cell surface fluorescence produced by G79-FITC binding.

[2] = tested on: retinal ganglion cells (RGC); test: Glaucoma model, count of retinal ganglion cells; format: in vivo, Sprague Dawley rats
Experimental: 12 Sprague Dawley rats (4 months of age) were anesthetized with […] and subjected to hypertonic saline solution injection into the episcleral vein of the right eye. Intraocular pressure (IOP) was measured before the operation and was monitored one time a week using a TonoLab for 7 weeks. Treatment with G79 was begun one week after glaucoma induction by topical application at the conjunctive. Two different experiments were performed.
In the first experiment, G79 was dissolved into physiological solution and was used at two different concentration (200 μg/ml and 400 μg/ml). NGF was used as positive control (200 μg/ml) and the physiological solution, used to dissolve all the molecules, was subministered as placebo. The animals were divided into 4 groups (3 animals in each group): glaucoma-G79 200 μg/ml; glaucoma-G79 […]; glaucoma-NGF; glaucoma-placebo. The left eye was used as the control without glaucoma. In both experiments, seven weeks after glaucoma induction, animals were sacrificed by overdose of anaesthetic and their eyes were taken and fixed in 4% of PFA. The eyes were included in paraffin and cut into 20 μm sections to be used for histological studies (hematoxilin-eosin staining). The cell count of the number of retinal ganglion cells (RGC) was performed randomly in ten different fields for each eye.
Rats were injected with a hypertonic solution in the eye that induced high intraocular pressure for five weeks. Animals were treated with eye drops of NGF ([…]), G79 ([…]) or placebo every day for five weeks. Animals with glaucoma and treated with placebo (saline) have a significant decrease in the number of retinal ganglion cells compared with control.
In the second experiment, G79 at the concentration of 200 μg/ml was used. The objective of this second experiment was to compare the efficacy of G79 to Timolol, the most common therapy for glaucoma that works by decreasing the intraocular pressure. Also in this experiment, a combination treatment with G79 and Timolol was performed. […]

IL-1β = test: Neuroinflammation in vitro model, organotypic cerebellar culture challenged with LPS, ELISA; format: cell-based, mice; conditions: G79 100 ng/ml pre-treatment; LPS 15 μg/ml
Text: (§1) Neonates mice (day 8 after birth (P8)) were decapitated after anaesthetic IP injection and whole brains were removed aseptically. Cerebellum was separated from the rest of the brain and placed on a metal vibratome plate. Once the cerebellum was attached to the surface of the plate, 400 μm sagittal sections were cut using the vibratome. The slices were then transferred with a plastic Pasteur pipette to a cell culture plate containing an organotypic culture medium (5% CO2 in 50% basal medium with Earle's salt, 25% Hank's buffered salt solution, 25% inactivated horse serum, 5 mg/ml glucose, 0.25 mM L-glutamine and 25 μg/ml penicillin/streptomycin). After separating and isolating each slice, the cerebellar slices were then transferred to 6-well plates (3 slices for each well) containing a 30 mm culture plate insert with 0.4 μm pores (Millipore) and 1 ml full culture medium, pre-conditioned by incubation for at least 2 hours at 37° C., and 5% CO2 was added into each well below the insert. The six-well plates were kept at 37° C. and under 5% CO2, and half the medium was replaced every 2 days. All the experiments were performed after 1 week of culture in such conditions.
(§2) After one week of organotypic cerebellum culture, the medium of each well was replaced with fresh medium and G79 (100 ng/ml) or placebo (physiologic solution) was added to the wells and kept in incubation for 1 hour. […]

TNFα = test: as above; format: cell-based, mice; conditions: G79 100 ng/ml pre-treatment; LPS 15 μg/ml
Text: as §1, §2

**Q.** CC(C)CN(CC(=O)N(CCCN1CCCC1=O)CC(N)=O)C(=O)CNCCc1ccccc1F [Compound G79, [N-(2-(2′-Fluorophenyl)ethyl)glycyl]-[N-(2-methylpropyl)glycyl]-N-[3-(2′-oxopyrrolidinyl)propyl]glycinamide] was tested. Which “competition with NGF for binding (MCF of G79-FITC)” value [1] did it give?
**A.** The value was “competes for the binding on the same NGF-receptors”.

**Q.** What about the “protection of retinal ganglion cells (number of RGC vs glaucoma-placebo)” value ([2]; first experiment, eye drops, NGF 200, G79 200 and 400 μg/ml) of the same molecule?
**A.** Its value is “significant protection of the ganglion cells”.

**Q.** What about the “protection of RGCs by the combination treatment” value ([2]; second experiment, G79 200 μg/ml in combination with Timolol) of the same molecule?
**A.** Its value is “did not exert additive effect in protecting RGCs”.

**Q.** What about the “release of IL-1β” value (IL-1β) of the same molecule?
**A.** The value was “did not affect the release of IL-1β”.

**Q.** And the “production of TNFα compared to placebo” value (TNFα)?
**A.** Its value is “reduced at 6 and 12 hours”.
